Measured values reported in US20090149506A1, “INSECTICIDAL COMPOSITIONS WITH IMPROVED EFFECT” (Bayer CropScience AG, priority 2005, published 2009).

Assays:
[1] = tested on: Green peach aphid (Myzus persicae); experiment: Myzus persicae test (MYZUPE), spray treatment of infested bell pepper plants; assay type: in vivo; details: 0.8 ppm, after 6 d, spray on bell pepper plants (Capsicum annuum); 100% = all aphids killed, 0% = none killed
Procedure: Myzus persicae Test (MYZUPE)
(§1) To produce a suitable preparation of active compound, 1 part by weight of active compound is mixed with the stated amounts of solvent and emulsifier, and the concentrate is diluted with emulsifier-containing water to the desired concentration. If addition of ammonium salts or ammonium salts and penetrant is required, the appropriate amount is added by pipette after dilution of the respective finished preparation solution.
Bell pepper plants (Capsicum annuum) which are heavily infested by the Green peach aphid (Myzus persicaei) are treated by spraying with the active compound preparation of the desired concentration.
(§2) After the desired period of time, the kill in % is determined. 100% means that all aphids have been killed; 0% means that none of the aphids have been killed.
(§3) In this test, for example, the following embodiments of the invention show good activity: see table below

[2] = tested on: cotton aphid (Aphis gossypii); experiment: Aphis gossypii test (APHIGO), spray treatment of infested cotton leaves; assay type: in vivo; details: 0.8 ppm, after 6 d, spray on cotton leaves (Gossypium hirsutum); 100% = all aphids killed, 0% = none killed
Procedure: Aphis gossypii Test (APHIGO)
as §1
Cotton leaves (Gossypium hirsutum) which are heavily infested by the cotton aphid (Aphis gossypii) are sprayed with an active compound preparation of the desired concentration.
as §2, §3

## CNC(=O)c1cc(Cl)cc(C)c1NC(=O)c1cc(Br)nn1-c1ncccc1Cl [Example I-1-3]
[1]
  kill in % (% 6 d): 0%
[2]
  kill in % (% 6 d): 0%
